The results in this text go back to patent US4157400A, “Terpenophenoxyalkylamines and pharmaceutical compositions and uses thereof” (MAR-PHA, Societe d'Etude et d'Exploitation de Marques, priority 1976, dated 1979).

Converted amounts (≈) assume the structure as drawn.

Data set [1] can be described thus: Acute toxicity in the mouse (LD50). Conditions: in vivo, male CD1 mouse, 3 days observation. As for the experimental part: Acute toxicities of the compounds according to the invention have been determined in the male mouse CD1 (Charles RIVER) both intravenously and orally. The LD50 were calculated after observation for 3 days by the method of REED, JJ. and MUENCH, H. (Am. J. Hy, 27 493, 1938).

Data set [2] deals with tachycardia induced by isoproterenol. Kind of data set: Beta-sympatholytic activity: antagonism of isoproterenol-induced tachycardia in the non-anesthetized rabbit. Format: in vivo. The settings on record: for Maximum Inhibition of tachycardia (as a %): isoproterenol 0.010 mg/kg i.v. The procedure:
The technique consists of evaluating the antagonism exerted by the products with regard to induced tachycardia, in an alert rabbit, by a sympatho-stimulant agent, isoproterenol, administered in a dose of 0.010 mg/kg intravenously. The animal is placed in a restraining box and the marginal vein of the ear is catheterized. The animal's electrocardiogram is picked up by two electrodes implanted in shunt DII and connected to a telemetric transmitter. A polygraph, coupled to a receiver, simultaneously records the electrocardiogram and the cardiac rhythm by integration of the waves R.
First of all, one makes certain of the stability and reproducibility of isoprenalinic tachycardia and the substance to be studied is administered. In the case of intravenous administration of the products, the injections of isoproterenol are then repeated 5 minutes later, then every 15 minutes, until the tachycardia returns to its initial intensity. When the products are administered orally, the injections of the beta-stimulant are repeated 15, 30, 45 and 60 minutes, then 2, 3, 5, 24 and 48 hours afterwards.
The beta-sympatholytic activity is expressed by the maximum percentage decrease of the tachycardia induced by isoproterenol. The total duration of the effect is also noted.

A further data set deals with rabbit's heart. Kind of data set: Coronaro-dilatory activity on the isolated rabbit heart (technique derived from Langendorff). The procedure:
In this technique, the survival liquid perfusing the heart contains 0.5 I.U./l post-hypophysis intended for permanently maintaining a slight vaso-constriction of the coronary vascular system. The products to be studied are administered in the region of the aortic canal in a volume of 1 cm^3 over a period of 1 minute. The results are expressed as a percentage variation of the coronary output after the injection of the product with respect to the initial output, the output being measured by integration of the frequency of drops of survival liquid escaping from the heart after having passed through the coronary system.

For data set [3], the system named is removed duodenum of the rat, contractions caused by acetylcholine. Kind of data set: Spasmolytic activity on the detached duodenum of the rat, neurotrope (versus acetylcholine; Magnus). The source says: (§1) The spasmolytic neurotropes inhibit the contractions of the organ caused by acetylcholine,whereas the musculotropes prevent the spasms induced by barium chloride. The following table summarises the results expressed as a 50% effective concentration (EC50) in mg/l.

Data set [4] concerns removed duodenum of the rat, spasms induced by barium chloride. The experiment in a line: Spasmolytic activity on the detached duodenum of the rat, musculotrope (versus BaCl2; Magnus).
From the text: as §1

The LD50 is the dose expected to kill half of the subjects tested. The low end stands for a more toxic substance, the high end for a less toxic substance. The term EC50 denotes the concentration that produces a half-maximal response. Lower therefore signals greater potency. Consider `CC(C)NCC(O)COc1ccccc1[C@@H]1C[C@H]2CC[C@@H]1C2` (relative stereo) [Example 1, 1-isopropylamino-3-[2-(2-norbornyl exo)phenoxy]propan-2-ol], for which the LD50 at 72 h came to 60 mg/kg in data set [1] (iv, intravenously) and 800 mg/kg in data set [1] (po, orally). The “Duration of Inhibiting effect” value in data set [2] (intravenous dose 0.1 mg/kg) is “approx. 50 minutes”; in data set [2] (intravenous dose 0.3 mg/kg) it was “approx 21/2”; in data set [2] (intravenous dose 0.5 mg/kg) it was “more than 2 hrs”; in data set [2] (intravenous dose 1 mg/kg), “more than 2 hrs”; in data set [2] (oral dose 9 mg/kg), “more than 3 hrs”; in data set [2] (oral dose 17.5 mg/kg) it was “approx. 24 hrs”. Moreover, the “Duration of Inhibiting effect” value is “approx. 48 hrs” in data set [2] (oral dose 35 mg/kg), “approx. 48 hrs” in data set [2] (oral dose 75 mg/kg) and “more than 48 hrs” in data set [2] (oral dose 150 mg/kg). The “Maximum Inhibition of tachycardia (as a %)” value (shortened to “Maximum Inhibition … (as a %)”) came to 24% in data set [2] (intravenous dose 0.1 mg/kg); 67% in data set [2] (intravenous dose 0.3 mg/kg); 54% in data set [2] (intravenous dose 0.5 mg/kg); 86% in data set [2] (intravenous dose 1 mg/kg); 40% in data set [2] (oral dose 9 mg/kg); 73% in data set [2] (oral dose 17.5 mg/kg). The “Maximum Inhibition … (as a %)” value in data set [2] (oral dose 35 mg/kg) stood at 88%; in data set [2] (oral dose 75 mg/kg) it was 80%; in data set [2] (oral dose 150 mg/kg), 82%. The activation at 0.003 µg/mL in the data set with rabbit's heart (Oryctolagus cuniculus, dose 0.003 mg/l, increase (+) versus initial output, post-hypophysis 0.5 I.U./l, read-out: % Variation of coronary output) came to 13%. Besides, the activation at 0.01 µg/mL in the data set on rabbit's heart (Oryctolagus cuniculus, dose 0.010 mg/l, increase (+) versus initial output, post-hypophysis 0.5 I.U./l, read-out: % Variation of coronary output) worked out at 57%. In the data set on rabbit's heart (Oryctolagus cuniculus, dose 0.030 mg/l, increase (+) versus initial output, post-hypophysis 0.5 I.U./l, read-out: % Variation of coronary output), the activation at 0.03 µg/mL is 133%. Further, the activation at 0.1 µg/mL with rabbit's heart (Oryctolagus cuniculus, dose 0.100 mg/l, increase (+) versus initial output, post-hypophysis 0.5 I.U./l, read-out: % Variation of coronary output) stood at 225%. The “Duration of the effect” value turned out to be 3 min in the data set on rabbit's heart (dose 0.003 mg/l), 3 min in the data set on rabbit's heart (dose 0.010 mg/l), 15 min in the data set on rabbit's heart (dose 0.030 mg/l) and 9 min with rabbit's heart (dose 0.100 mg/l). For the same compound, in the data set on rabbit's heart (isolated rabbit heart), the “coronaro-dilatory effects (in words)” value is “considerable coronaro-dilatory effects, whose intensity and duration clearly increase with the concentration”. The EC50 amounted to 0.18 µg/mL (≈ 0.593 µM) in data set [3] and 0.15 µg/mL (≈ 0.494 µM) in data set [4].
Turning to `CC(C)NCC(O)COc1ccccc1[C@H]1C[C@H]2CC[C@@H]1C2` (relative stereo) [Example 2, 1-isopropylamino-3-[2-(2-norbornyl endo)phenoxy]propan-2-ol], the LD50 at 72 h in data set [1] (iv, intravenously) amounted to 62 mg/kg; in data set [1] (po, orally), 675 mg/kg. Besides, the “Duration of Inhibiting effect” value is recorded as “approx. 40 mins” in data set [2] (intravenous dose 0.5 mg/kg); “approx. 4 hrs” in data set [2] (intravenous dose 1 mg/kg); “approx. 24 hrs” in data set [2] (oral dose 17.5 mg/kg); “approx. 48 hrs” in data set [2] (oral dose 35 mg/kg); “approx. 48 hrs” in data set [2] (oral dose 75 mg/kg); “approx. 48 hrs” in data set [2] (oral dose 150 mg/kg). Moreover, the “Maximum Inhibition … (as a %)” value in data set [2] (intravenous dose 0.5 mg/kg) is on record as 20%; in data set [2] (intravenous dose 1 mg/kg) it was 67%; in data set [2] (oral dose 17.5 mg/kg), 64%; in data set [2] (oral dose 35 mg/kg) it was 60%; in data set [2] (oral dose 75 mg/kg), 80%; in data set [2] (oral dose 150 mg/kg) it was 81%. Moreover, the EC50 in data set [3] stood at 0.3 µg/mL (≈ 0.989 µM); in data set [4] it was 0.04 µg/mL (≈ 0.132 µM).
